Molecules are shown by their SMILES.

Consider `CCCCC(CC)COCC(O)CO` (stereo not shown) [1-(2-ethylhexyl)glycerol ether, 1-(2-Ethylhexyl)-glycerol ether], for which the solubility in water turned out to be 0.1 % by weight.

The values are drawn from patent US20110237626A1, “COMPOSITIONS FOR HYGIENIC HAND DISINFECTION AND DISINFECTANT HANDWASHING” (AIR LIQUIDE SANTE (INTERNATIONAL), priority 2005, published 2011).
